These results are taken from US10253039B2, “Inhibitors of bacterial DNA gyrase with efficacy against gram-negative bacteria” (priority 2014, dated 2019).

The MIC is the lowest concentration found to suppress growth.

What all share (type): cell-based
One test deals with E. coli JW5503 (deltolC). Nature of the test: MIC, 20-strain panel. Particulars: Escherichia coli, C: E. coli JW5503 (deltolC). How it is done:
(§1) A microdilution method in 96-well plates was used and the MIC protocol established by the Clinical Laboratory Standards Institute was followed. From a growing subculture, a 1:10000 inoculum of each strain in Luria-Bertani media was prepared and aliquoted 100 μL in 4 columns of wells, except for the top row wells, which contained 200 μL of inoculum. A solution of gyramide C2 was aliquoted into 3 of the wells containing 200 μL and DMSO was added to the 4th well. The liquid in each of wells was mixed with a multi-channel pipet and 100 μL was transferred to the next well and mixed. The 2-fold dilution was continued down the 96-well plate until 100 μL was left, which was discarded. The plates were incubated at 37° C. with shaking for 16-18 hours. The MIC was determined as the lowest concentration that inhibited growth and had no turbidity by visual inspection.
(§2) Minimum inhibitory concentrations of various gyramide compounds against 20 strains of bacteria were determined using the procedure described above.

Test [1] relates to Staphylococcus aureus subsp. aureus. The experiment in a line: MIC, 20-strain panel. Particulars: H: Staphylococcus aureus subsp. aureus, read-out: MIC. How it is done:
as §1, §2

Test [2] concerns Staphylococcus saprophyticus subsp. saprophyticus. The experiment in a line: MIC, 20-strain panel. How it is done:
as §1, §2

Test [3] deals with Staphylococcus epidermidis. The experiment in a line: MIC, 20-strain panel. How it is done: as §1, §2
The subject of the next test is Streptococcus agalactiae. Nature of the test: MIC, 20-strain panel. The protocol:
as §1, §2

The next test deals with Streptococcus pyogenes. The experiment in a line: MIC, 20-strain panel. How it is done: as §1, §2
Test [4] relates to Salmonella enterica subsp. enterica typhimurium. The experiment in a line: MIC, 20-strain panel. Particulars: F: Salmonella enterica subsp. enterica Typhimurium. The protocol: as §1, §2
In test [5] the test system is Klebsiella pneumoniae subsp. pneumoniae. The experiment in a line: MIC, 20-strain panel. Particulars: E: Klebsiella pneumoniae subsp. pneumoniae. The protocol:
as §1, §2

The test system of another test is Shigella flexneri. The experiment in a line: MIC, 20-strain panel. Particulars: G: Shigella flexneri. How it is done:
as §1, §2

In another test the test system is E. coli MG1655. Nature of the test: MIC, 20-strain panel. Particulars: Escherichia coli, MG1655, A: E. coli MG1655; read-out: MIC. The protocol:
as §1, §2

The subject of another test is E. coli BW25113. The experiment in a line: MIC, microdilution in 96-well plates. Particulars: Escherichia coli, BW25113, B: E. coli BW25113; read-out: MIC. The protocol: as §1, §2
For a further test, the system named is Edwardsiella tarda. The experiment in a line: MIC, microdilution in 96-well plates. Particulars: D: Edwardsiella tarda. How it is done:
as §1, §2
(Dilution methods test growth across graded concentrations, often in twofold steps.)

Converted amounts (≈) assume the structure as drawn.

In the case of `CC(C)(C)Oc1ccc(CN2CC[C@@H](NS(=O)(=O)c3cccc(C(F)(F)F)c3)C2)cc1` [Compound 23], the MIC is 0.5 µg/mL (≈ 1.1 µM) against E. coli JW5503 (deltolC); above 8 µg/mL in test [1]; above 8 µg/mL in [2]; above 8 µg/mL in test [3]; above 8 µg/mL against Streptococcus agalactiae; above 8 µg/mL against Streptococcus pyogenes. Moreover, the MIC (in [4]; in test [5]; in the test on Shigella flexneri; in the test on E. coli MG1655; in the test on E. coli BW25113; in the test on Edwardsiella tarda) was above 8 µg/mL throughout.
Take `N#Cc1cccc(S(=O)(=O)N[C@@H]2CCN(Cc3ccc(-c4cccc(Cl)c4)cc3)C2)c1` [Compound 24]: the MIC with E. coli JW5503 (deltolC) was 4 µg/mL (≈ 8.85 µM); in test [1], above 8 µg/mL; in test [2], above 8 µg/mL; in test [3], above 8 µg/mL; against Streptococcus agalactiae, above 8 µg/mL; with Streptococcus pyogenes, above 8 µg/mL. Also, the MIC (in test [4]; in [5]; against Shigella flexneri; in the test with E. coli MG1655; with E. coli BW25113; against Edwardsiella tarda) was above 8 µg/mL in each case.
As for `N#Cc1cccc(S(=O)(=O)N[C@@H]2CCN(Cc3ccc(-c4cccs4)cc3)C2)c1` [Compound 25], the MIC against E. coli JW5503 (deltolC) is 0.25 µg/mL (≈ 0.59 µM); in test [1] it was above 8 µg/mL; in test [2] it was above 8 µg/mL; in test [3] it was above 8 µg/mL; in the test on Streptococcus agalactiae it was above 8 µg/mL; in the test with Streptococcus pyogenes it was above 8 µg/mL. The minimal inhibitory concentration (MIC) is 4 µg/mL (≈ 9.44 µM) in [4]; above 8 µg/mL in [5]; above 8 µg/mL in the test with Shigella flexneri; around 8 µg/mL (≈ 18.9 µM) in the test with E. coli MG1655; around 8 µg/mL (≈ 18.9 µM) in the test with E. coli BW25113; above 8 µg/mL in the test with Edwardsiella tarda.
Regarding `CC(C)(C)Oc1ccc(CN2CC[C@@H](NS(=O)(=O)c3cccc(OC(F)(F)F)c3)C2)cc1` [Compound 26], the MIC against E. coli JW5503 (deltolC) is 0.5 µg/mL (≈ 1.06 µM); in [1], above 8 µg/mL; in test [2], above 8 µg/mL; in [3], above 8 µg/mL; in the test with Streptococcus agalactiae, above 8 µg/mL; against Streptococcus pyogenes, above 8 µg/mL. Also, the MIC (in [4]; in [5]; with Shigella flexneri; in the test with E. coli MG1655; with E. coli BW25113; in the test on Edwardsiella tarda) was above 8 µg/mL in each case.
Take `O=S(=O)(N[C@@H]1CCN(Cc2ccc(-c3ccccc3)cc2)C1)c1cccc(C(F)(F)F)c1` [Compound 27]: the MIC against E. coli JW5503 (deltolC) was 0.5 µg/mL (≈ 1.09 µM); in [1], above 8 µg/mL; in test [2] it was above 8 µg/mL; in test [3], 8 µg/mL (≈ 17.4 µM); in the test on Streptococcus agalactiae it was above 8 µg/mL; against Streptococcus pyogenes, 8 µg/mL (≈ 17.4 µM). Further, the minimum inhibitory concentration (MIC) in test [4] is 4 µg/mL (≈ 8.69 µM); in test [5], above 8 µg/mL; in the test with Shigella flexneri, above 8 µg/mL; in the test on E. coli MG1655, above 8 µg/mL; in the test with E. coli BW25113 it was above 8 µg/mL; in the test with Edwardsiella tarda, above 8 µg/mL.
`O=S(=O)(N[C@@H]1CCN(Cc2ccc(-c3cccc(Cl)c3)cc2)C1)c1cccc(OC(F)(F)F)c1` [Compound 28]: the MIC is above 8 µg/mL against E. coli JW5503 (deltolC); above 8 µg/mL in [1]; above 8 µg/mL in test [2]; 2 µg/mL (≈ 3.91 µM) in test [3]; above 8 µg/mL against Streptococcus agalactiae; around 8 µg/mL (≈ 15.7 µM) with Streptococcus pyogenes. Further, the minimum inhibitory concentration (MIC) (in [4]; in [5]; with Shigella flexneri; in the test with E. coli MG1655; with E. coli BW25113; in the test on Edwardsiella tarda) was above 8 µg/mL each time.
For the compound `CC(C)Oc1ccc(CN2CC[C@@H](NS(=O)(=O)c3cc(S(=O)(=O)c4ccccc4)cs3)C2)cc1` [Compound 29], the MIC (against E. coli JW5503 (deltolC); in [1]; in [2]; in test [3]; with Streptococcus agalactiae; with Streptococcus pyogenes) was above 8 µg/mL in each case. Moreover, the MIC (in test [4]; in [5]; in the test on Shigella flexneri; in the test on E. coli MG1655; in the test with E. coli BW25113; in the test with Edwardsiella tarda) was above 8 µg/mL in each case.
Take `Cc1c(CN2CC[C@@H](NS(=O)(=O)c3cccc(C#N)c3)C2)cnn1-c1ccccc1` [Compound 30]: the MIC (against E. coli JW5503 (deltolC); in test [1]; in test [2]; in [3]; against Streptococcus agalactiae; against Streptococcus pyogenes) was above 8 µg/mL throughout. Also, the MIC (in test [4]; in [5]; in the test with Shigella flexneri; in the test with E. coli MG1655; in the test with E. coli BW25113; against Edwardsiella tarda) was above 8 µg/mL throughout.
For the compound `CSc1ccc(CN2CC[C@@H](NS(=O)(=O)c3cccc(C#N)c3)C2)cc1` [Compound 31], the MIC is around 8 µg/mL (≈ 20.6 µM) with E. coli JW5503 (deltolC); above 8 µg/mL in test [1]; above 8 µg/mL in test [2]; above 8 µg/mL in test [3]; above 8 µg/mL against Streptococcus agalactiae; above 8 µg/mL against Streptococcus pyogenes. Moreover, the MIC (in test [4]; in test [5]; in the test with Shigella flexneri; with E. coli MG1655; in the test on E. coli BW25113; in the test on Edwardsiella tarda) was above 8 µg/mL throughout.
For the compound `O=S(=O)(N[C@@H]1CCN(Cc2ccc(-c3cccs3)cc2)C1)c1cccc(C(F)(F)F)c1` [Compound 32], the MIC with E. coli JW5503 (deltolC) was 1 µg/mL (≈ 2.14 µM); in test [1], above 8 µg/mL; in test [2] it was above 8 µg/mL; in test [3], 8 µg/mL (≈ 17.1 µM); in the test with Streptococcus agalactiae it was above 8 µg/mL; in the test with Streptococcus pyogenes, 8 µg/mL (≈ 17.1 µM). The MIC was 8 µg/mL (≈ 17.1 µM) in test [4]; above 8 µg/mL in test [5]; above 8 µg/mL in the test with Shigella flexneri; above 8 µg/mL in the test with E. coli MG1655; above 8 µg/mL in the test with E. coli BW25113; above 8 µg/mL against Edwardsiella tarda.
With `O=S(=O)(N[C@@H]1CCN(Cc2ccc(-n3ccnn3)cc2)C1)c1cccc(OC(F)(F)F)c1` [Compound 33], the MIC (with E. coli JW5503 (deltolC); in test [1]; in test [2]; in [3]; against Streptococcus agalactiae; against Streptococcus pyogenes) was above 8 µg/mL throughout. Besides, the minimum inhibitory concentration (MIC) (in test [4]; in test [5]; with Shigella flexneri; with E. coli MG1655; in the test on E. coli BW25113; in the test with Edwardsiella tarda) was above 8 µg/mL each time.
As for `N#Cc1cccc(S(=O)(=O)N[C@@H]2CCN(Cc3nc(-c4ccccc4)cs3)C2)c1` [Compound 34], the MIC (in the test on E. coli JW5503 (deltolC); in [1]; in test [2]; in test [3]; against Streptococcus agalactiae; in the test on Streptococcus pyogenes) was above 8 µg/mL in each case. Further, the MIC (in test [4]; in [5]; in the test with Shigella flexneri; in the test on E. coli MG1655; in the test on E. coli BW25113; in the test with Edwardsiella tarda) was above 8 µg/mL in each case.
With `O=S(=O)(N[C@@H]1CCN(Cc2ccc(-n3cccn3)cc2)C1)c1cccc(C(F)(F)F)c1` [Compound 35], the MIC is 1 µg/mL (≈ 2.22 µM) with E. coli JW5503 (deltolC); above 8 µg/mL in test [1]; above 8 µg/mL in test [2]; above 8 µg/mL in test [3]; above 8 µg/mL with Streptococcus agalactiae; above 8 µg/mL in the test with Streptococcus pyogenes. Moreover, the MIC (in [4]; in [5]; against Shigella flexneri; in the test with E. coli MG1655; in the test on E. coli BW25113; in the test on Edwardsiella tarda) was above 8 µg/mL in each case.
On to `O=S(=O)(N[C@@H]1CCN(Cc2ccc(-c3nccs3)cc2)C1)c1cccc(OC(F)(F)F)c1` [Compound 36], for which the MIC was 2 µg/mL (≈ 4.14 µM) against E. coli JW5503 (deltolC); above 8 µg/mL in [1]; above 8 µg/mL in test [2]; above 8 µg/mL in test [3]; above 8 µg/mL with Streptococcus agalactiae; above 8 µg/mL in the test with Streptococcus pyogenes. In addition, the MIC (in test [4]; in [5]; against Shigella flexneri; in the test with E. coli MG1655; with E. coli BW25113; in the test on Edwardsiella tarda) was above 8 µg/mL each time.
On to `O=S(=O)(N[C@@H]1CCN(Cc2ccc(-c3ccccc3)cc2)C1)c1cc(S(=O)(=O)c2ccccc2)cs1` [Compound 37], for which the MIC (against E. coli JW5503 (deltolC); in test [1]; in test [2]; in test [3]; in the test with Streptococcus agalactiae; against Streptococcus pyogenes) was above 8 µg/mL in each case. Also, the MIC (in [4]; in [5]; in the test with Shigella flexneri; with E. coli MG1655; in the test on E. coli BW25113; in the test with Edwardsiella tarda) was above 8 µg/mL throughout.
